These results are taken from US20140374103A1, “TREATING AND RECYLCING OILFIELD WASTE WATER” (BAKER HUGHES INCORPORATED, priority 2013, published 2014).

This assay deals with bacteria in oilfield waste water. The conditions noted are these: 10 mL of 30 vol % hydrogen peroxide to 250 mL raw oilfield waste water (Sample A and Sample B), room temperature, stirred; before vs after treatment; FIGS. 4 and 5.

Experimental: The number density of the bacteria present in the oilfield waste water is determined before or after introduction of the biocide, the oxidizer, or a combination thereof. Determining the number density of the bacteria is accomplished in various manners. In an embodiment, the number density of the bacteria is determined by particle sizing such as by light scattering. In another embodiment, a small volume of oilfield water is disposed on an agar plate or slant tube and subjected to microbiological counting methods. Alternatively, the number density of the bacteria is determined by quantifying an amount of bacterial adenosine triphosphate (ATP) in a sample of the oilfield waste water, wherein the ATP is retrieved from living bacterial cells. The sample size is a portion or all of the oilfield waste water. […] The ATP quantification is accomplished by lysing the bacterial cells using an enzyme to release ATP into the sample of the oilfield waste water. An assay for the amount of ATP includes introducing a luminescent enzyme such as firefly luciferase to the sample and thereafter collecting luminescence from the luminescent enzyme. […] Thereafter, the number density of bacteria in the oilfield waste water is calculated from the amount of bacterial ATP. […] An aliquot of Sample A and Sample B was collected and subjected to ATP quantification before and after treatment with the hydrogen peroxide.

For `OO` [hydrogen peroxide], the “number density of bacteria in the treated water” value was “drastically decreases the number density of bacteria”.
